Results from patent publication US6562844B2, “Oxazolidinone combinatorial libraries, compositions and methods of preparation” (Pharmacia & Upjohn Company, priority 1998, dated 2003).
Values after ≈ are worked out from the molar mass of the structure shown.

Test system: S. aureus
Assay: Antimicrobial activity MIC, microdilution whole cell assay, S. aureus
Type: cell-based
Conditions: Staphylococcus aureus; standard whole cell assay; read-out: MIC against S. aureus
Protocol: Assay Protocol for Antimicrobial Activity. Minimum inhibitory concentrations (MICs) were determined using the microdilution method in 96-well format plates. Compounds were suspended in DMSO at 5 or 10 mg/ml and stored at 4° C. until used. They were diluted in Mueller-Hinton Broth (MHB) or Trypticase Soy Broth (TSB) and used for MIC determination. The range of concentrations tested was 64-0.0625 μg/ml final concentration using a two-fold dilution system.
The inoculum was prepared from cells grown on Trypticase Soy Agar (TSA) and incubated overnight at 35° C., 5 to 10 colonies were used to inoculate MHB or TSB broths, and the culture was incubated overnight at 35° C. The overnight culture was diluted 1:10, incubated for one hour at 35° C., diluted to the appropriate inoculum size and applied to the wells containing broth and test compound. Inoculum sizes were 1×10^5 to 5×10^5 CFU/ml. Strains used included P. aeruginosa VPAE1001, E. faecium V VEFA1001, E. faecium VanA VEFA1002, S. aureus VSAU1003, S. aureus MRSA VSAU1004, E. coli VEC05, and E. coli (arc-) VEC05.
Plates were incubated at 35° C. for 48 hours and MIC were recorded after 18 hours of incubation, for bacteria, and 48 for yeasts.

CON=Cc1ccc(/C=C/C(=O)NC[C@H]2CN(c3ccc(C(N)=O)c(F)c3)C(=O)O2)cc1 showed an MIC of about 0.5 µg/mL (≈ 1.14 µM).
